Laboratory results taken from US20050256179A1, “Selective pharmacologic inhibition of protein trafficking and related methods of treating human diseases” (priority 2003, published 2005).

Tested on: B16F10 cells
Assay: Density gradient centrifugation, intracellular protein distribution
Type: cell-based
Settings: B16 cells, 16 hours drug
Protocol: To test this possibility directly, cells were cultured with and without drug for 16-20 hours, harvested, lysed, and layered on top of a gradient of varying density iodixanol-containing fractions (2.5-30%). The gradients were centrifuged for 2 to 18 hours at 56K x g, collected, and tested for resident proteins via Western blot. Fractions were probed with antibodies specific for calnexin (ER-specific marker), γ-adaptin (golgi), and Rab5a (vesicles). […] FIGS. 34 and 35 also show the unfractionated levels of Rab6 and Rab1B, respectively, that were obtained prior to density gradient centrifugation. No difference in the expression of these 3 marker proteins was observed between the control and drug-treated cells.
B16F10 cells were seeded into 175 cm2 flasks one day prior to drug application. On the subsequent day, fresh media +/−drug was applied to the cultures. 16 hours later, the cells were washed with cold Dulbecco's PBS, then harvested in ice-cold homogenization buffer: 130 mM KCl, 25 mM NaCl, 1 mM EGTA, 25 mM Tris pH7.4, plus 15 ul protease inhibitor per 5 mL buffer. 1 mL of buffer was used per flask, and the cells were scrapped off into 14 mL round-bottom culture tubes and kept on ice. The harvested cells were then homogenized with a tissue homogenizer (Polytron PT10/35), transferred into 2 mL centrifuge tubes, and spun at 1,000 rpm for 8 min at 4° C. […]

O=C(Nc1ccc(-c2nc3cc(NC(=O)C4CCCCC4)ccc3[nH]2)cc1)C1CCCCC1 [AVP 893]
distribution of Rab 1b and Rab 6 in gradient fractions: retained in the ER at the expense of the golgi compartment
